Measured values reported in US20240358701A1, “PHARMACEUTICAL COMPOSITIONS AND COMBINATIONS COMPRISING INHIBITORS OF THE ANDROGEN RECEPTOR AND USES THEREOF” (ESSA Pharma Inc., priority 2021, published 2024).
Like-named read-outs stand apart in the source and are kept apart here.

How the values were obtained:
[1] = Phase 1 dose escalation (Example 3): PK evaluation / drug-drug interaction; format: in vivo, human; details: for exposure under drug-drug interaction with a concomitant medication (strong CYP3A inducer): discontinued at end of cycle 2; for AUC: human, plasma, oral, 600 mg QD, read-out: AUCss for Compound A
Protocol: Phase 1 of the study is a single-arm dose escalation study of Compound A in combination with a fixed dose of enzalutamide (120 mg/day). This portion of the study primarily evaluates the safety and tolerability of the drug combination and establishes the RP2CD for Compound A and enzalutamide when dosed in combination. In addition, blood sampling will be conducted for PK evaluation to assess the potential drug-drug interaction (DDI) between the two drugs.
In the Phase 1 part of the study each dose cohort will receive a 7-day run-in with single agent Compound A to establish steady-state concentrations of this drug at that dose level, followed by 28-day cycles of the combination Compound A with enzalutamide. Subjects may remain on study treatment as long as they are tolerating treatment without disease progression based on Response Evaluation Criteria in Solid Tumors (RECIST) v1.1 or based on Prostate Cancer Working Group 3 (PCWG3) criteria. A 30-day End of Treatment Visit will be conducted 30 days from the date of the last dose.
For Cohort 1, subjects (n=3) were orally administered 600 mg QD (once a day) of Compound A alone for 7 days then administered 600 mg QD Compound A in combination with 120 mg QD enzalutamide for at least one cycle (e.g., 28 days). Two subjects received the combination of Compound A and enzalutamide for at least 4 cycles (e.g., 16 weeks).
The plasma concentration data for Compound A, enzalutamide, N-desmethylated enzalutamide (M2; active metabolite) will be analyzed using non-compartmental methods to obtain estimates of standard PK parameters.
PK parameters of Compound A following multiple dosing including but not limited to plasma area under the concentration-time curve from time zero to 24 hours (AUC0-24), maximum concentration (Cmax), observed pre-dose plasma concentration during multiple dosing (Ctrough), time to reach Cmax (Tmax), apparent terminal elimination half-life (t½; whenever feasible to calculate), apparent volume of distribution at steady state after extravascular administration (Vss/F), apparent clearance after extravascular administration (CL/F).
PK parameters of enzalutamide and its primary active metabolite following multiple dosing including but not limited to AUC0-24, Cmax, Ctrough, Tmax, t½ (whenever feasible to calculate), Vss/F, CL/F.

[2] = enzalutamide monotherapy, cited from earlier work
[3] = Cohort 1: 600 mg QD Compound A + 120 mg QD enzalutamide

Row | enzalutamide exposure, impact of Compound A administration [1, 3] | Compound | exposure under drug-drug interaction with a concomitant medication (strong CYP3A inducer) ([1]; Cohort 1, third subject) | Compound A exposure, impact of enzalutamide [1, 3] | AUC ([1]; Cohort 1, first subject, no prior chemotherapy (FIG. 1A)) [ng·h/mL] | AUC ([1]; Cohort 1, second subject, prior chemotherapy (FIG. 1B)) [ng·h/mL] | AUC ([1]; Cohort 1, third subject, prior chemotherapy, concomitant strong CYP3A inducer (FIG. 1C)) [ng·h/mL] | 90 day confirmed PSA<0.2 ng/mL rate ([2]; post-chemotherapy population) [%] | 90 day confirmed PSA<0.2 ng/mL rate ([2]; pre-chemotherapy population) [%]
1 |  | CC(C)(c1ccc(OCc2ccnc(NS(C)(=O)=O)n2)cc1)c1cc(Cl)c(OCCCl)c(C#N)c1 [Compound A, N-(4-((4-(2-(3-chloro-4-(2-chloroethoxy)-5-cyanophenyl)propan-2-yl)phenoxy)methyl)pyrimidin-2-yl)methanesulfonamide] | significant decrease in exposure | impacted by enzalutamide with higher metabolism of Compound A observed | ~235000 | ~62000 | ~33000 |  | 
2 | only minimally impacted | CNC(=O)c1ccc(N2C(=S)N(c3ccc(C#N)c(C(F)(F)F)c3)C(=O)C2(C)C)cc1F [enzalutamide, reference compound] | significant decrease in exposure |  |  |  |  | 1 | 5
